Measurements taken from patent US20230339952A1, “MACROCYCLIC HETEROCYCLES AND USES THEREOF” (Kumquat Biosciences Inc., priority 2022, published 2023).
pIC50: −log10 of the molar value.

Key:
[1] = test system: NCI-H1975 (ATCC CRL-5908) cell line comprising an EGFR T790M L858R double mutation; assay: EGFR-SOS cellular inhibition assay (CellTiter-Glo cell proliferation); assay type: cell-based; conditions: Homo sapiens, 120 h; NCI-H1975 cell proliferation, approximately 5 days; read-out: H1975 IC50
Protocol: A CellTiter-Glo (CTG) luminescent based assay (Promega) is used to assess growth of the cells, as a measurement of the ability of the compounds herein to inhibit EGFR signaling in the cells. […] The day after plating, cells are treated with a dilution series (e.g., a 9 point 3-fold dilution series) of the compounds herein (e.g., approximately 125 μL final volume per well).

SOS1 = SOS1 (Homo sapiens (Human), UniProt Q07889); assay: Ras-SOS interaction assay (HTRF), K-Ras G13D utilized; assay type: binding; conditions: K-Ras G13D, read-out: SOS1 IC50
Chain of SOS1 (Q07889 564-1049): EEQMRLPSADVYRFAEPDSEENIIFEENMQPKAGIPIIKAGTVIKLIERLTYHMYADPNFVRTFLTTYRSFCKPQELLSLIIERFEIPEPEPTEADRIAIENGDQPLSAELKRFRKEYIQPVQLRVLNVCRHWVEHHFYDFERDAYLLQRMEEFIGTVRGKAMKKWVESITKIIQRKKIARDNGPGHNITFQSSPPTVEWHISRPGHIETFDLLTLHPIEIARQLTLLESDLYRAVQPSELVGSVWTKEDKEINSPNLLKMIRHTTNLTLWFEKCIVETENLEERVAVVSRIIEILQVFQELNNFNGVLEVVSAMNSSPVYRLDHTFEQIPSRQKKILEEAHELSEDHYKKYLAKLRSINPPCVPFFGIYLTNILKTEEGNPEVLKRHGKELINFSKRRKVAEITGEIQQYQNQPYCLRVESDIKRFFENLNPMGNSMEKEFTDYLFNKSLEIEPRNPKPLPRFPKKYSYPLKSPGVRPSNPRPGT
Source text: For example, the equilibrium interaction of human SOS1 (hSOS1) with human wildtype Kras or K-Ras mutant (e.g., hK-Ras G12C mutant, or hK-Ras G12C) can be assessed as a proxy or an indication for a subject compound's ability to inhibit SOS. Detection of such interaction is achieved by measuring homogenous time-resolved fluorescence resonance energy transfer (HTRF) from (i) a fluorescence resonance energy transfer (FRET) donor (e.g., antiGST-Europium) that is bound to GST-tagged K-Ras G12C to (ii) a FRET acceptor (e.g., anti-6His-XL665) bound to a His-tagged hSOS1.
A Ras working solution is prepared in assay buffer containing typically 10 nM of the protein construct (e.g., GST-tagged hK-Ras G12C) and 2 nM of the FRET donor (e.g., antiGST-Eu(K) from Cisbio, France). A SOS1 working solution is prepared in assay buffer containing typically 10 nM of the protein construct (e.g., His-hSOS1) and 10 nM of the FRET acceptor (e.g., anti-6His-XL665 from Cisbio, France). An inhibitor control solution is prepared in assay buffer containing 10 nM of the FRET acceptor without the SOS1 protein.
A fixed reaction mixture with or without test compound is transferred into a 384-well plate. Ras working solution is added to all wells of the test plate. SOS1 working solution is added to all wells except for those that are subsequently filled with the inhibitor control solution. […] The ratiometric data (i.e., emission 2 divided by emission 1) is used to calculate IC50 values against SOS1 using GraphPad Prism (GraphPad software).

pIC50 [1]	pIC50 (SOS1)	SMILES
> 6.00	> 7.00	C[C@H]1Nc2ncnc3c2cc(C2(C#N)CCS(=O)(=O)CC2)c(=O)n3CCCCCCN2CCC(CC2)CC(F)(F)c2cccc1c2F [Compound 23, 4-((3R)-4^2,5,5-trifluoro-3-methyl-1^7-oxo-1^7,1^8-dihydro-2-aza-1(4,8)-pyrido[2,3-d]pyrimidina-7(4,1)-piperidina-4(1,3)-benzenacyclotridecaphane-1^6-yl)tetrahydro-2H-thiopyran-4-carbonitrile 1,1-dioxide]
> 6.00	> 7.00	CC1CC/C=C\CCn2c(=O)c(C3(C#N)CC3)cc3c(ncnc32)N[C@H](C)c2cccc(c2F)C(F)(F)C2CCN1CC2 (stereo partly drawn) [Compound 24, 1-((4R,Z)-3^2,2,2-trifluoro-4,13-dimethyl-6^7-oxo-6^7,6^8-dihydro-5-aza-6(4,8)-pyrido[2,3-d]pyrimidina-1(4,1)-piperidina-3(1,3)-benzenacyclotridecaphan-9-en-6^6-yl)cyclopropane-1-carbonitrile]
> 6.00	> 7.00	C[C@H]1Nc2ncnc3c2cc(C2(C#N)CC2)c(=O)n3CCCC(=O)N(C)CCN2CCC(CC2)C(F)(F)c2cccc1c2 [Compound 27, 1-((4R)-2,2-difluoro-4,11-dimethyl-6^7,10-dioxo-6^7,6^8-dihydro-5,11-diaza-6(4,8)-pyrido[2,3-d]pyrimidina-1(4,1)-piperidina-3(1,3)-benzenacyclotridecaphane-6^6-yl)cyclopropane-1-carbonitrile]
> 6.00	> 7.00	C[C@H]1Nc2ncnc3c2cc(C2CCS(=O)(=O)CC2)c(=O)n3CCCCCCC(=O)N2CCC(CC2)C(F)(F)c2cccc1c2F [Compound 28, (4R)-6^6-(1,1-dioxidotetrahydro-2H-thiopyran-4-yl)-3^2,2,2-trifluoro-4-methyl-6^7,6^8-dihydro-5-aza-6(4,8)-pyrido[2,3-d]pyrimidina-1(4,1)-piperidina-3(1,3)-benzenacyclotridecaphane-6^7,13-dione]
> 6.00	> 7.00	C[C@H]1Nc2ncnc3c2cc(C2CCS(=O)(=O)CC2)c(=O)n3CCCC(=O)NCCN2CCC(CC2)C(F)(F)c2cccc1c2 [Compound 30, (4R)-6^6-(1,1-dioxidotetrahydro-2H-thiopyran-4-yl)-2,2-difluoro-4-methyl-6^7,6^8-dihydro-5,11-diaza-6(4,8)-pyrido[2,3-d]pyrimidina-1(4,1)-piperidina-3(1,3)-benzenacyclotridecaphane-6^7,10-dione]
> 6.00	> 7.00	CC1CCCCCCn2c(=O)c(C3(C#N)CC3)cc3c(ncnc32)N[C@H](C)c2cccc(c2F)C(F)(F)C2CCN1CC2 (stereo partly drawn) [Compound 34, 1-((4R)-3^2,2,2-trifluoro-4,13-dimethyl-6^7-oxo-6^7,6^8-dihydro-5-aza-6(4,8)-pyrido[2,3-d]pyrimidina-1(4,1)-piperidina-3(1,3)-benzenacyclotridecaphane-6^6-yl)cyclopropane-1-carbonitrile]
> 6.00	> 7.00	C[C@@H]1C(=O)NCCCCn2c(=O)c(C3(C#N)CC3)cc3c(ncnc32)N[C@H](C)c2cccc(c2)C(F)(F)C2CCN1CC2 [Compound 36, 1-((4R,13R)-2,2-difluoro-4,13-dimethyl-6^7,12-dioxo-6^7,6^8-dihydro-5,11-diaza-6(4,8)-pyrido[2,3-d]pyrimidina-1(4,1)-piperidina-3(1,3)-benzenacyclotridecaphane-6^6-yl)cyclopropane-1-carbonitrile]
> 6.00	> 7.00	C[C@H]1Nc2ncnc3c2cc(N2CCS(=O)(=O)CC2)c(=O)n3CCCCCCCN2CCC(CC2)C(F)(F)c2cccc1c2F [Compound 38, (4R)-6^6-(1,1-dioxidothiomorpholino)-3^2,2,2-trifluoro-4-methyl-6^7,6^8-dihydro-5-aza-6(4,8)-pyrido[2,3-d]pyrimidina-1(4,1)-piperidina-3(1,3)-benzenacyclotridecaphan-6^7-one]
> 6.00	> 7.00	C[C@H]1Nc2ncnc3c2cc(C2CCS(=O)(=O)CC2)c(=O)n3Cc2cn(nn2)CCCCN2CCC(CC2)C(F)(F)c2cccc1c2 [Compound 40, (5R,Z)-3^6-(1,1-dioxidotetrahydro-2H-thiopyran-4-yl)-7,7-difluoro-5-methyl-3^7,3^8-dihydro-1^1H-4-aza-3(8,4)-pyrido[2,3-d]pyrimidina-8(4,1)-piperidina-1(4,1)-triazola-6(1,3)-benzenacyclododecaphan-3^7-one]
> 6.00	> 7.00	C[C@H]1Nc2ncnc3c2cc(C2CCS(=O)(=O)CC2)c(=O)n3CCCN(C)C(=O)CCN2CCC(CC2)C(F)(F)c2cccc1c2 [Compound 41, (4R)-6^6-(1,1-dioxidotetrahydro-2H-thiopyran-4-yl)-2,2-difluoro-4,10-dimethyl-6^7,6^8-dihydro-5,10-diaza-6(4,8)-pyrido[2,3-d]pyrimidina-1(4,1)-piperidina-3(1,3)-benzenacyclotridecaphane-6^7,11-dione]
> 6.00	> 7.00	C[C@H]1Nc2ncnc3c2cc(N2CCS(=O)(=O)CC2)c(=O)n3CCCCCCCN2CCC(CC2)C(F)(F)c2cccc1c2 [Compound 42, (4R)-6^6-(1,1-dioxidothiomorpholino)-2,2-difluoro-4-methyl-6^7,6^8-dihydro-5-aza-6(4,8)-pyrido[2,3-d]pyrimidina-1(4,1)-piperidina-3(1,3)-benzenacyclotridecaphan-6^7-one]
> 6.00	> 7.00	C[C@H]1Nc2ncnc3c2cc(C2(C#N)CC2)c(=O)n3CCCCCCCN2CCC(CC2(C)C)C(F)(F)c2cccc1c2 (stereo partly drawn) [Compound 43, 1-((4R)-2,2-difluoro-1^2,1^2,4-trimethyl-6^7-oxo-6^7,6^8-dihydro-5-aza-6(4,8)-pyrido[2,3-d]pyrimidina-1(4,1)-piperidina-3(1,3)-benzenacyclotridecaphane-6^6-yl)cyclopropane-1-carbonitrile]
5.00 to 6.00	5.30 to 7.00	Cc1nc2c3cc(C4(C#N)CC4)c(=O)n(c3n1)CCCCCCCOCC(F)(F)c1cccc(c1F)[C@@H](C)N2 [Compound 44, 1-((3R)-4^2,5,5-trifluoro-1^2,3-dimethyl-1^7-oxo-1^7,1^8-dihydro-7-oxa-2-aza-1(4,8)-pyrido[2,3-d]pyrimidina-4(1,3)-benzenacyclotetradecaphane-1^6-yl)cyclopropane-1-carbonitrile]
> 6.00	> 7.00	C[C@H]1Nc2ncnc3c2cc(C2CCS(=O)(=O)CC2)c(=O)n3CC(=O)N(C)CCCCN2CCC(CC2)C(F)(F)c2cccc1c2 [Compound 46, (4R)-6^6-(1,1-dioxidotetrahydro-2H-thiopyran-4-yl)-2,2-difluoro-4,9-dimethyl-6^7,6^8-dihydro-5,9-diaza-6(4,8)-pyrido[2,3-d]pyrimidina-1(4,1)-piperidina-3(1,3)-benzenacyclotridecaphane-6^7,8-dione]
> 6.00	> 7.00	C[C@H]1Nc2ncnc3c2cc(C2CCS(=O)(=O)CC2)c(=O)n3CCCCCCCCCN2CCC(CC2)C(F)(F)c2cccc1c2 [Compound 47, (4R)-6^6-(1,1-dioxidotetrahydro-2H-thiopyran-4-yl)-2,2-difluoro-4-methyl-6^7,6^8-dihydro-5-aza-6(4,8)-pyrido[2,3-d]pyrimidina-1(4,1)-piperidina-3(1,3)-benzenacyclopentadecaphan-6^7-one]
> 6.00	> 7.00	Cc1nc2c3cc(C4(C#N)CC4)c(=O)n(c3n1)CCCCCCCCOCC(F)(F)c1cccc(c1F)[C@@H](C)N2 [Compound 49, 1-((3R)-4^2,5,5-trifluoro-1^2,3-dimethyl-1^7-oxo-1^7,1^8-dihydro-7-oxa-2-aza-1(4,8)-pyrido[2,3-d]pyrimidina-4(1,3)-benzenacyclopentadecaphane-1^6-yl)cyclopropane-1-carbonitrile]
> 6.00	> 7.00	CC(C)N1CCN(c2cc3c4ncnc3n(c2=O)CCCCCCN2CCC(CC2)CC(F)(F)c2cccc(c2)[C@@H](C)N4)CC1 [Compound 50, (3R)-5,5-difluoro-1^6-(4-isopropylpiperazin-1-yl)-3-methyl-1^7,1^8-dihydro-2-aza-1(4,8)-pyrido[2,3-d]pyrimidina-7(4,1)-piperidina-4(1,3)-benzenacyclotridecaphan-1^7-one]
> 6.00	> 7.00	C[C@H]1Nc2ncnc3c2cc(C2(C#N)CC2)c(=O)n3CC(=O)N(C)CCCCN2CCC(CC2)C(F)(F)c2cccc1c2 [Compound 52, 1-((4R)-2,2-difluoro-4,9-dimethyl-6^7,8-dioxo-6^7,6^8-dihydro-5,9-diaza-6(4,8)-pyrido[2,3-d]pyrimidina-1(4,1)-piperidina-3(1,3)-benzenacyclotridecaphane-6^6-yl)cyclopropane-1-carbonitrile]
